According to patent US20070082880A1 (priority 2005, published 2007):
Counter-ions that a name gives are not always drawn.

Key:
PKCθ = PKCθ (Homo sapiens, UniProt Q04759); assay: PKCθ Scintiplate Assay; assay type: biochemical; details: average value when one or more samples were tested
Method: This assay detects the phosphorylation of a biotinylated substrate by kinase utilizing radiolabeled ATP (ATP γ P33). The enzyme is either recombinant full length PKCθ (Panvera, P2996) or the purified recombinant active kinase domain of full length PKCθ (amino acids 362-706). The substrate in this assay is a biotinylated peptide with a sequence of biotin-[…]-CONH2. The assay buffer is composed of 100 mM Hepes, pH7.5, 2 mM MgCl2, 20 mM β-glycerophosphate and 0.008% TritonX 100. A reaction mixture of ATP, ATP γ P33 (PerkinElmer), DTT, lipid activator, and the enzyme is prepared in the assay buffer and added to a 96 well polypropylene plate. The compound (diluted in DMSO in a separate 96-well polypropylene plate) is added to the reaction mixture and incubated at room temperature. Following the incubation, the peptide substrate is added to the reaction mixture to initiate the enzymatic reaction. The reaction is terminated with the addition of a stop solution (10 mM EDTA, 0.2% TritonX100, and 100 mM NaHPO4) and transferred from the assay plate to a washed streptavidin-coated 96 well scintiplate (PerkinElmer). The scintiplate is incubated at room temperature, washed in PBS with 0.1% TritonX 100, and counted in the 1450 Microbeta Trilux (Wallac, Version 2.60). Counts are recorded for each well as corrected counts per minute (CCPM). The counts are considered corrected because they are adjusted according to a P33 normalization protocol, which corrects for efficiency and background differences between the instrument detectors (software version 4.40.01).

[1] = molecular target: T1, human PKCθ full length enzyme (Homo sapiens, UniProt Q04759); assay: PKCθ IMAP Assay; assay type: biochemical; details: average value when one or more samples were tested; ATP 6 uM, PKCθ 1 nM
T1 construct: human PKCθ full length enzyme (Panvera Catalog No. P2996); purchased Panvera P2996
T1 sequence (Q04759 whole entry): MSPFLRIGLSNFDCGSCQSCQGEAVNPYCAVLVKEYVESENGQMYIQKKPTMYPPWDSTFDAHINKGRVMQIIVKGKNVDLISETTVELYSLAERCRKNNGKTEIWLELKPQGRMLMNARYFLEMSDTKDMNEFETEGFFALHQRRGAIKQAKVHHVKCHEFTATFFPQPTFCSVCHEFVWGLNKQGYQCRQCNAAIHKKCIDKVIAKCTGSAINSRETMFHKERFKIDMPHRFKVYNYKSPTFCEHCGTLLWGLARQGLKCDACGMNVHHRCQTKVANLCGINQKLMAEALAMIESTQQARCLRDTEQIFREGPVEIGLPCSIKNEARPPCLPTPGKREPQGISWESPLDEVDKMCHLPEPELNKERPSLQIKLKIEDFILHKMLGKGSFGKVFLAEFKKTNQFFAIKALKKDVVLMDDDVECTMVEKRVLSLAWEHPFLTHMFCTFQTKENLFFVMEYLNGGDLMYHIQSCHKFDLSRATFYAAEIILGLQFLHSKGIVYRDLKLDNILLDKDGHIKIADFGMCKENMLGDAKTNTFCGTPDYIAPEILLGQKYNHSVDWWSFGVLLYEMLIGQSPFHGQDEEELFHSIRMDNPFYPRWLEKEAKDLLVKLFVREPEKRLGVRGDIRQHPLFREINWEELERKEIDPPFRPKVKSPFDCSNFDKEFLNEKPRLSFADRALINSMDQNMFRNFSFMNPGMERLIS
Outline: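 Full-length human PKCθ (1 nM final) with 6 uM ATP and 100 nM 5FAM-labelled peptide, 5% DMSO, 3.0 mM DTT in reaction buffer. 25 min at room temperature; IMAP bead binding 20 min, fluorescence polarization read. Compounds 2:1 serially diluted; no-ATP and no-enzyme wells as controls.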

PKCθ, sequence (Q04759 362-706 limits assumed): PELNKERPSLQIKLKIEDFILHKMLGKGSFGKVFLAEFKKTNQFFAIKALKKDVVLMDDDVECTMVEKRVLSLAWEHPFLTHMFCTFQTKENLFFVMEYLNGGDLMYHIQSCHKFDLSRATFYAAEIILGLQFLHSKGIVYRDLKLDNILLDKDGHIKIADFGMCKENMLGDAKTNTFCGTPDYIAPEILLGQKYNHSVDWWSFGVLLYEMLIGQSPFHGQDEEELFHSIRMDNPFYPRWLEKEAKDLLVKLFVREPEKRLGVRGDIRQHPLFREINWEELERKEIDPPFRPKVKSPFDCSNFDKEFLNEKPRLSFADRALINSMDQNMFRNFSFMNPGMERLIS

CN(C)Cc1ccc(-c2cc3c(Nc4ccc5[nH]ccc5c4)c(C#N)cnc3s2)cc1 [Compound 105, 2-{4-[(dimethylamino)methyl]phenyl}-4-(1H-indol-5-ylamino)thieno[2,3-b]pyridine-5-carbonitrile]
IC50 (PKCθ): 77 nM

N#Cc1cnc2sc(-c3ccc(CNCCO)cc3)cc2c1Nc1ccc2[nH]ccc2c1 [Compound 106, 2-(4-{[(2-hydroxyethyl)amino]methyl}phenyl)-4-(1H-indol-5-ylamino)thieno[2,3-b]pyridine-5-carbonitrile]
IC50 (PKCθ): 80 nM | IC50 [1]: 140 nM

N#Cc1cnc2sc(-c3ccccc3)cc2c1Nc1ccc2cc[nH]c2c1 [Compound 116, 4-(1H-indol-6-ylamino)-2-phenylthieno[2,3-b] pyridine-5-carbonitrile hydrochloride]
IC50 (PKCθ): > 3300 nM | IC50 [1]: 5600 nM

Cc1c(Nc2c(C#N)cnc3sc(-c4ccccc4)cc23)ccc2[nH]ccc12 [Compound 117, 4-[(4-methyl-1H-indol-5-yl)amino]-2-phenylthieno[2,3-b]pyridine-5-carbonitrile]
IC50 (PKCθ): 28 nM | IC50 [1]: 60 nM

Cc1cc2cc(Nc3c(C#N)cnc4sc(-c5ccccc5)cc34)ccc2[nH]1 [Compound 118, 4-[(2-methyl-1H-indol-5-yl)amino]-2-phenylthieno[2,3-b]pyridine-5-carbonitrile]
IC50 (PKCθ): 2700 nM | IC50 [1]: 1900 nM

N#Cc1cnc2sc(-c3ccccc3)cc2c1Nc1ccc2[nH]cnc2c1 [Compound 119, 4-(1H-benzimidazol-5-ylamino)-2-phenylthieno[2,3-b]pyridine-5-carbonitrile]
IC50 (PKCθ): 9100 nM

Cc1cc(Nc2c(C#N)cnc3sc(-c4ccccc4)cc23)cc2cc[nH]c12 [Compound 120, 4-[(7-methyl-1H-indol-5-yl)amino]-2-phenylthieno[2,3-b]pyridine-5-carbonitrile]
IC50 (PKCθ): 120000 nM

N#Cc1cnc2sc(-c3ccccc3)cc2c1NCc1cccc2[nH]ccc12 [Compound 125, 4-(1H-indol-4-ylmethylamino)-2-phenylthieno[2,3-b]pyridine-5-carbonitrile]
IC50 (PKCθ): > 30000 nM

CN1CCN(Cc2ccc(-c3cc4c(NCCc5c[nH]cn5)c(C#N)cnc4s3)cc2)CC1 [Compound 128, 4-{[2-(1H-imidazol-4-yl)ethyl]amino}-2-{4-[(4-methylpiperazin-1-yl)methyl]phenyl}thieno[2,3-b]pyridine-5-carbonitrile]
IC50 (PKCθ): 7300 nM

N#Cc1cnc2sc(-c3ccccc3)cc2c1NC(=O)c1ccc2[nH]ccc2c1 [Compound 129, N-(5-cyano-2-phenylthieno[2,3-b]pyridin-4-yl)-1H-indole-5-carboxamide]
IC50 (PKCθ): > 60000 nM | IC50 [1]: > 100000 nM

Cc1c[nH]c2ccc(Nc3c(C#N)cnc4sc(-c5ccccc5)cc34)cc12 [Compound 133, 4-[(3-methyl-1H-indol-5-yl)amino]-2-phenylthieno[2,3-b]pyridine-5-carbonitrile]
IC50 (PKCθ): 800 nM | IC50 [1]: 1400 nM

Cn1ccc2cc(Nc3c(C#N)cnc4sc(-c5ccccc5)cc34)ccc21 [Compound 134, 4-[(1-methyl-1H-indol-5-yl)amino]-2-phenylthieno[2,3-b]pyridine-5-carbonitrile]
IC50 (PKCθ): > 200000 nM

N#Cc1cnc2sc(-c3ccc(CN4CCOCC4)cc3)cc2c1Nc1cccc2[nH]ccc12 [Compound 138, 4-(1H-indol-4-ylamino)-2-[4-(morpholin-4-ylmethyl)phenyl]thieno[2,3-b]pyridine-5-carbonitrile]
IC50 (PKCθ): 190 nM

CN(C)Cc1cccc(-c2cc3c(Nc4cccc5[nH]ccc45)c(C#N)cnc3s2)c1 [Compound 141, 2-{3-[(dimethylamino)methyl]phenyl}-4-(1H-indol-4-ylamino)thieno[2,3-b]pyridine-5-carbonitrile]
IC50 (PKCθ): 41 nM | IC50 [1]: 40 nM

CN1CCN(Cc2ccccc2-c2cc3c(Nc4cccc5[nH]ccc45)c(C#N)cnc3s2)CC1 [Compound 143, 4-(1H-indol-4-ylamino)-2-{2-[(4-methylpiperazin-1-yl)methyl]phenyl}thieno[2,3-b]pyridine-5-carbonitrile]
IC50 (PKCθ): 180 nM | IC50 [1]: 240 nM

CN1CCN(Cc2cccc(-c3cc4c(Nc5ccc6[nH]ccc6c5)c(C#N)cnc4s3)c2)CC1 [Compound 145, 4-(1H-indol-5-ylamino)-2-{3-[(4-methylpiperazin-1-yl)methyl]phenyl}thieno[2,3-b]pyridine-5-carbonitrile]
IC50 (PKCθ): 90 nM

CN(C)Cc1cccc(-c2cc3c(Nc4ccc5[nH]ccc5c4)c(C#N)cnc3s2)c1 [Compound 147, 2-{3-[(dimethylamino)methyl]phenyl}-4-(1H-indol-5-ylamino)thieno[2,3-b]pyridine-5-carbonitrile]
IC50 (PKCθ): 43 nM | IC50 [1]: 75 nM

N#Cc1cnc2sc(-c3cccc(CN4CCN(CCO)CC4)c3)cc2c1Nc1ccc2[nH]ccc2c1 [Compound 148, 2-(3-{[4-(2-hydroxyethyl)piperazin-1-yl]methyl}phenyl)-4-(1H-indol-5-ylamino)thieno[2,3-b]pyridine-5-carbonitrile]
IC50 (PKCθ): 60 nM | IC50 [1]: 73 nM

N#Cc1cnc2sc(-c3cccc(CNCCO)c3)cc2c1Nc1ccc2[nH]ccc2c1 [Compound 149, 2-(3-{[(2-hydroxyethyl)amino]methyl}phenyl)-4-(1H-indol-5-ylamino)thieno[2,3-b]pyridine-5-carbonitrile]
IC50 (PKCθ): 13 nM | IC50 [1]: 30 nM

N#Cc1cnc2sc(-c3cccc(CN4CCN(CCN5CCOCC5)CC4)c3)cc2c1Nc1ccc2[nH]ccc2c1 [Compound 150, 4-(1H-indol-5-ylamino)-2-(3-{[4-(2-morpholin-4-ylethyl)piperazin-1-yl]methyl}phenyl)thieno[2,3-b]pyridine-5-carbonitrile]
IC50 (PKCθ): 41 nM | IC50 [1]: 160 nM

N#Cc1cnc2sc(-c3cccc(CN(CCO)CCO)c3)cc2c1Nc1ccc2[nH]ccc2c1 [Compound 151, 2-(3-{[bis(2-hydroxyethyl)amino]methyl}phenyl)-4-(1H-indol-5-ylamino)thieno[2,3-b]pyridine-5-carbonitrile]
IC50 (PKCθ): 88 nM | IC50 [1]: 77 nM

N#Cc1cnc2sc(-c3cccc(CN4CCN(CCc5ccccc5)CC4)c3)cc2c1Nc1ccc2[nH]ccc2c1 [Compound 152, 4-(1H-indol-5-ylamino)-2-(3-{[4-(2-phenylethyl)piperazin-1-yl]methyl}phenyl)thieno[2,3-b]pyridine-5-carbonitrile]
IC50 (PKCθ): 310 nM

N#Cc1cnc2sc(-c3ccccc3CN3CCC(O)CC3)cc2c1Nc1ccc2[nH]ccc2c1 [Compound 186, 2-{2-[(4-hydroxypiperidin-1-yl)methyl]phenyl}-4-(1H-indol-5-ylamino)thieno [2,3-b]pyridine-5-carbonitrile]
IC50 (PKCθ): 290 nM | IC50 [1]: 1600 nM

Cc1c(Nc2c(C#N)cnc3sc(-c4cccc(CN(C)C)c4)cc23)ccc2[nH]ccc12 [Compound 187, 2-{3-[(dimethylamino)methyl]phenyl}-4-[(4-methyl-1H-indol-5-yl)amino]thieno[2,3-b]pyridine-5-carbonitrile]
IC50 (PKCθ): 4.5 nM | IC50 [1]: 8 nM

N#Cc1cnc2sc(-c3ccc(N4CCOCC4)cc3)cc2c1Nc1ccc2[nH]ccc2c1 [Compound 189, 4-(1H-indol-5-ylamino)-2-(4-morpholin-4-ylphenyl)thieno[2,3-b]pyridine-5-carbonitrile]
IC50 (PKCθ): 2100 nM

CCN1CCN(CC/C=C/c2cc3c(Nc4ccc5[nH]ccc5c4)c(C#N)cnc3s2)CC1 [Compound 190, 2-[(1E)-4-(4-ethylpiperazin-1-yl)but-1-en-1-yl]-4-(1H-indol-5-ylamino)thieno[2,3-b]pyridine-5-carbonitrile]
IC50 (PKCθ): 190 nM

CN(C)CCc1ccc(-c2cc3c(Nc4ccc5[nH]ccc5c4)c(C#N)cnc3s2)cc1 [Compound 192, 2-{4-[2-(dimethylamino)ethyl]phenyl}-4-(1H-indol-5-ylamino)thieno[2,3-b] pyridine-5-carbonitrile]
IC50 (PKCθ): 45 nM

CN(C)Cc1ccc(-c2cc3c(Nc4ccc5[nH]ccc5c4)c(C#N)cnc3s2)nc1 [Compound 204, 2-{5-[(dimethylamino)methyl]pyridin-2-yl}-4-(1H-indol-5-ylamino)thieno[2,3-b] pyridine-5-carbonitrile]
IC50 (PKCθ): 110 nM | IC50 [1]: 180 nM

Cn1cncc1-c1cc2c(Nc3ccc4[nH]ccc4c3)c(C#N)cnc2s1 [Compound 205, 4-(1H-indol-5-ylamino)-2-(1-methyl-1H-imidazol-5-yl)thieno[2,3-b]pyridine-5-carbonitrile]
IC50 (PKCθ): 180 nM

CN1CCN(Cc2ncc(-c3cc4c(Nc5ccc6[nH]ccc6c5)c(C#N)cnc4s3)n2C)CC1 [Compound 210]
IC50 (PKCθ): 580 nM

N#Cc1cnc2sc(C#Cc3ccccc3)cc2c1Nc1ccc2[nH]ccc2c1 [Compound 215, 4-(1H-indol-5-ylamino)-2-(phenylethynyl)thieno[2,3-b]pyridine-5-carbonitrile]
IC50 (PKCθ): 500 nM
